Results as given in ChEMBL document CHEMBL1201862, “PubChem BioAssay data set” (2004).
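Interpolation was linear, between the two tested concentrations surrounding the appropriate level; five concentrations were tested over 48 hours in 96-well plates. GI50 marks 50% less growth.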 Activity calls are given as the source filed them. No stated cut-off is given here; in the data, active = GI50 up to about 1.1 µM and inactive = higher.

What was measured:
Test in all cases: NCI anticancer screen, dose series, 48 h
[1] = tested on: 786-0
[2] = tested on: A498
[3] = tested on: A549
[4] = tested on: ACHN
[5] = tested on: BT-549
[6] = tested on: CAKI-1
[7] = tested on: CCRF-CEM
[8] = tested on: COLO 205
[9] = tested on: DU-145
[10] = tested on: EKVX
[11] = tested on: HCC 2998
[12] = tested on: HCT-116
[13] = tested on: HCT-15
[14] = tested on: HL-60
[15] = tested on: HOP-62
[16] = tested on: HOP-92
[17] = tested on: HT-29
[18] = tested on: Hs-578T
[19] = tested on: IGROV-1
[20] = tested on: K562
[21] = tested on: KM12
[22] = tested on: LOX IMVI
[23] = tested on: M14
[24] = tested on: MCF7
[25] = tested on: MDA-MB-231
[26] = tested on: MDA-MB-435
[27] = tested on: MDA-N
[28] = tested on: MOLT-4
[29] = tested on: Malme-3M
[30] = tested on: NCI-H226
[31] = tested on: NCI-H23
[32] = tested on: NCI-H460
[33] = tested on: NCI-H522
[34] = tested on: NCI/ADR-RES
[35] = tested on: OVCAR-3
[36] = tested on: OVCAR-4
[37] = tested on: OVCAR-5
[38] = tested on: OVCAR-8
[39] = tested on: PC-3
[40] = tested on: RPMI-8226
[41] = tested on: RXF 393
[42] = tested on: SF-268
[43] = tested on: SF-295
[44] = tested on: SF-539
[45] = tested on: SK-MEL-28
[46] = tested on: SK-MEL-2
[47] = tested on: SK-MEL-5
[48] = tested on: SK-OV-3
[49] = tested on: SN12C
[50] = tested on: SNB-19
[51] = tested on: SNB-75
[52] = tested on: SR
[53] = tested on: SW-620
[54] = tested on: T47D
[55] = tested on: TK-10
[56] = tested on: U-251
[57] = tested on: UACC-257
[58] = tested on: UACC-62
[59] = tested on: UO-31

Measured: GI50

Nc1cc(S(N)(=O)=O)ccc1SSc1ccc(S(N)(=O)=O)cc1N
> 100 µM: [13]
inactive: [1] > 100 µM | [2] > 100 µM | [3] > 100 µM | [4] > 62.5 µM | [5] > 100 µM | [6] > 100 µM | [7] 8.49 µM | [8] > 100 µM | [9] > 100 µM | [10] > 100 µM | [11] > 100 µM | [12] > 100 µM | [14] > 100 µM | [15] > 100 µM | [16] > 100 µM | [17] > 100 µM | [18] > 100 µM | [19] > 100 µM | [20] > 96.6 µM | [21] > 100 µM | [22] > 100 µM | [23] > 100 µM | [24] > 100 µM | [25] > 100 µM | [26] > 100 µM | [27] > 100 µM | [28] 62.7 µM | [29] > 100 µM | [30] > 100 µM | [31] > 100 µM | [32] > 100 µM | [33] > 100 µM | [34] > 100 µM | [35] > 100 µM | [36] > 100 µM | [37] > 100 µM | [38] > 100 µM | [39] > 100 µM | [40] > 100 µM | [41] > 100 µM | [42] > 100 µM | [43] > 100 µM | [44] > 100 µM | [45] > 100 µM | [46] > 100 µM | [47] > 52.4 µM | [48] > 100 µM | [49] > 100 µM | [50] > 100 µM | [51] > 100 µM | [52] 57 µM | [53] > 100 µM | [54] > 100 µM | [55] > 100 µM | [56] > 100 µM | [57] > 100 µM | [58] > 100 µM | [59] > 100 µM

CC1(C)C(=O)N(O)C(C)(C)N1O
> 10 µM: [13]
inactive: [1] > 10 µM | [2] > 10 µM | [3] > 10 µM | [4] > 10 µM | [5] > 10 µM | [6] > 10 µM | [7] > 10 µM | [8] > 10 µM | [9] > 10 µM | [10] > 10 µM | [11] > 10 µM | [12] > 10 µM | [14] > 10 µM | [15] > 10 µM | [16] > 10 µM | [17] > 10 µM | [18] > 10 µM | [19] > 10 µM | [20] > 10 µM | [21] > 10 µM | [22] > 10 µM | [23] > 10 µM | [24] > 10 µM | [25] > 10 µM | [26] > 10 µM | [27] > 10 µM | [28] > 10 µM | [29] > 10 µM | [30] > 10 µM | [31] > 10 µM | [32] > 10 µM | [33] > 10 µM | [34] > 10 µM | [35] > 10 µM | [36] > 10 µM | [37] > 10 µM | [38] > 10 µM | [39] > 10 µM | [40] > 10 µM | [41] > 10 µM | [42] > 10 µM | [43] > 10 µM | [44] > 10 µM | [45] > 10 µM | [46] > 10 µM | [47] > 10 µM | [48] > 10 µM | [49] > 10 µM | [50] > 10 µM | [51] > 10 µM | [52] > 10 µM | [53] > 10 µM | [54] > 10 µM | [55] > 10 µM | [56] > 10 µM | [57] > 10 µM | [58] > 10 µM

CN(C)CCNc1ccc2c(=O)n(CCN(C)C)c(=O)n3c4ccc([N+](=O)[O-])cc4c(=O)c1c23
0.0966 µM: [13]
active: [1] 0.294 µM | [3] 0.184 µM | [4] 0.146 µM | [5] 0.655 µM | [6] 0.498 µM | [7] 0.0382 µM | [8] 0.179 µM | [9] 0.267 µM | [10] 0.55 µM | [11] 0.387 µM | [12] 0.0769 µM | [14] 0.157 µM | [15] 0.384 µM | [16] 0.201 µM | [17] 0.0946 µM | [18] 1.01 µM | [19] 0.126 µM | [20] 0.063 µM | [21] 0.518 µM | [22] 0.178 µM | [23] 1 µM | [24] 0.0716 µM | [25] 0.429 µM | [26] 0.49 µM | [27] 0.287 µM | [28] < 0.0141 µM | [29] 0.344 µM | [30] 0.312 µM | [31] 0.177 µM | [32] 0.0838 µM | [33] 0.08 µM | [34] 0.251 µM | [35] 0.27 µM | [36] 0.301 µM | [37] 0.532 µM | [38] 0.248 µM | [39] 0.482 µM | [40] 0.163 µM | [41] 0.198 µM | [42] 0.334 µM | [43] 0.359 µM | [44] 0.277 µM | [45] 1.04 µM | [46] 0.397 µM | [47] 1.04 µM | [48] 0.76 µM | [49] 0.197 µM | [50] 0.452 µM | [51] 0.293 µM | [52] 0.0815 µM | [53] 0.0524 µM | [54] 0.653 µM | [55] 1.09 µM | [56] 0.34 µM | [57] 0.728 µM | [59] 0.262 µM
inactive: [2] 1.41 µM | [58] 1.24 µM
